Laboratory results reported in paper PMC11597210, “A Comprehensive Evaluation of a Coumarin Derivative and Its Corresponding Palladium Complex as Potential Therapeutic Agents in the Treatment of Gynecological Cancers: Synthesis, Characterization, and Cytotoxicity” (Pharmaceutics, 2024).

Assays:
[1] = tested on: Peritoneal exudate cells (PECs); assay: Crystal violet (CV) viability assay on primary cells, 72 h; assay type: cell-based, C57BL/6 mice; conditions: mouse peritoneal exudate cells, read-out: IC50 PEC CV
Procedure: Peritoneal exudate cells (PECs) were isolated from the peritonea of 8–12-week-old C57BL/6 mice via a cavity rinse with ice-cold PBS. Cells were seeded in HEPES-buffered RPMI-1640 medium supplemented with 5% heat-inactivated FBS and antibiotics. The animals were from the animal facility of the Institute for Biological Research “Siniša Stanković” (IBISS) National Institute of the Republic of Serbia (Belgrade, Serbia). Animal handling was conducted and protocols were followed by the local Institutional Animal Care and Use Committee (IACUC) in accordance with local guidelines as well as European Community directives (EEC Directive of 1986; 86/609/EEC). The ethical approval number is 323-07-02147/2023-05.
(§1) The cells were treated with a range of CL, CC, and cisplatin concentrations for 72 h. At the end of the treatment, the cell viability was determined using MTT and crystal violet assays, as previously described. PECs were seeded at a density of 1.8 × 10^5 cells/well in 96-well plates, and two hours later, non-adherent cells were removed by washing the wells with PBS. The remaining adherent cells were treated the same way as the tumor cells. The PEC viability was estimated after 72 h of treatment using the CV assay only.

[2] = tested on: HeLa cells; assay: CFSE staining of cell proliferation, flow cytometry; assay type: cell-based, human; conditions: IC50 dose, 72 h
Procedure: To analyze the distribution of cells in the different phases of the cell cycle using flow cytometry, cells were collected at the end of the treatment and processed as previously described. To detect the presence of apoptotic cells, the treated HeLa cells were double-stained with Annexin V-FITC/PI in Annexin V-binding buffer according to the manufacturer’s instructions. For caspase activation, cells were incubated with FITC-labeled pan-caspase inhibitor ApoStat (0.5 μg/mL) for 30 min at 37 °C. The cells were then washed, resuspended in PBS, and analyzed using flow cytometry. The effect of the compounds on cell proliferation was analyzed via CFSE staining using flow cytometry in the same manner as previously described. DAF-FM was used to determine the intracellular production of nitric oxide in the treated HeLa cells, DHE was used to detect intracellular superoxide and hydrogen peroxide, and DHR123 was used to detect the cumulative intracellular production of reactive oxygen species and nitrogen species. These assays were performed as described in previously published studies. All flow cytometry data were obtained in a CytoFLEX cytometer (Beckman Coulter, Brea, CA, USA) and analyzed using FlowJo software v10 (Tree Star, Ashland, OR, USA).

[3] = molecular target: T1, human serum albumin (HSA) (Homo sapiens, UniProt P02768); assay: Spectrofluorimetric titration, HSA fluorescence quenching; assay type: binding; conditions: for KSV (Stern–Volmer quenching constant) / kq (quenching rate constant): PBS, 2.0 µM HSA; for ΔH° of HSA binding / ΔS° of HSA binding: van't Hoff, 296–310 K
T1 construct: purchased Sigma-Aldrich
T1 sequence (P02768 25-609): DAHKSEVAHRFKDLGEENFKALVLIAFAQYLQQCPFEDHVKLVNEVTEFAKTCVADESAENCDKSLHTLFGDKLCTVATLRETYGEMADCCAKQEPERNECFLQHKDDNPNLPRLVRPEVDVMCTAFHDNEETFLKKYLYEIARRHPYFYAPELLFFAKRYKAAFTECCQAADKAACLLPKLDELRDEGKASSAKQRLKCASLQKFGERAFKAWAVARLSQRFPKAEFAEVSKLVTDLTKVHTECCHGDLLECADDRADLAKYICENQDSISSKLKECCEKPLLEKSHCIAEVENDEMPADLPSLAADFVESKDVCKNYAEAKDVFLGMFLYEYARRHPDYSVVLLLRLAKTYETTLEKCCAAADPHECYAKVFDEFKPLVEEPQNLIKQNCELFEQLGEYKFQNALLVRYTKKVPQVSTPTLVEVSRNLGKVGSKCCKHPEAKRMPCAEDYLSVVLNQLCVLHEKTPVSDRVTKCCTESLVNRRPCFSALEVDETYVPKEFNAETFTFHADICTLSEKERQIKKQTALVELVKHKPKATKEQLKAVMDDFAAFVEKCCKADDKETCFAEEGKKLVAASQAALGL
Procedure: The fluorescence spectroscopy method was used to examine the possible binding ways of human serum albumin (HSA) with the investigated compounds. […] The fluorescence of HSA was recorded at an excitation wavelength of 290 nm, while the recording range was set at 300–500 nm. The gradual decrease in the maximum emission intensity of the HSA with an increasing concentration of all investigated compounds was monitored at about 330 nm.
Fluorescence quenching parameters were determined using the Stern–Volmer equation (Equation (2)):(2) I0/I=1+kqτ0Q=1+KSVQ.
The notations in the previous equation include I0 and I as HSA fluorescence intensities in the absence and presence of the quencher, while KSV and kq are the Stern–Volmer quenching constant and the quenching rate constant of HSA, τ0 is the fluorophore lifetime of HSA (in the absence of the quencher), and [Q] is the concentration of the quencher. The binding constant (Kb) and the number of binding sites (n) were calculated using the Hill equation (Equation (3)):(3) logI0−I/I=logKb+nlogQ. where I0 and I represent the HSA fluorescence intensities in the absence and presence of the quencher, and [Q] is the concentration of the quencher.
The thermodynamic parameters ΔH°, ΔS°, and ΔG° were calculated using the following equations:(4) lnKb=−∆H^°/RT+∆S^°/R (5) ∆G^°=∆H^°−T∆S^°
To obtain information on the quenching, binding, and thermodynamic parameters for the interaction of the ligand and complex (CL and CC) towards human serum albumin (HSA), spectrofluorimetric investigations were carried out. All experiments were performed under physiological conditions in phosphate-buffered saline (PBS) and at different temperatures (296 K, 303 K, and 310 K).

[4] = tested on: A2780 (human ovarian carcinoma cells); assay: MTT viability assay, 72 h; assay type: cell-based; conditions: A2780, 72 h, mean ± SD
Procedure: (§2) HeLa (human cervical adenocarcinoma cells), A2780 (human ovarian carcinoma cells), MCF7 (human breast adenocarcinoma cells), and HCT116 (human colorectal carcinoma cells) were purchased from American Type Culture Collection (ATCC, Rockville, MD, USA). HeLa, MCF-7, and HCT116 cells were cultivated in HEPES-buffered RPMI-1640, while A2780 cells were cultivated in DMEM. The media were supplemented with 10% heat-inactivated FBS and antibiotics (100 units/mL penicillin and 100 μg/mL streptomycin). The cells were grown at 37 °C in a humidified atmosphere with 5% CO2. For the viability assays, HeLa (3 × 10^3/well), A2780 (8 × 10^3/well), MCF7 (7 × 10^3/well), and HCT116 (6 × 10^3/well) cells were seeded in adherent flat-bottom 96-well plates. For the flow cytometric analyses, HeLa cells were seeded at 8 × 10^4 in 6-well plates.
as §1

[5] = tested on: HCT116 (human colorectal carcinoma cells); assay: MTT viability assay, 72 h; assay type: cell-based; conditions: HCT-116, HCT116, 72 h, mean ± SD
Procedure: as §2, §1

[6] = tested on: HeLa (human cervical adenocarcinoma cells); assay: MTT viability assay, 72 h; assay type: cell-based; conditions: mean ± SD of three experiments
Procedure: as §2, §1

[7] = tested on: MCF7 (human breast adenocarcinoma cells); assay: MTT viability assay, 72 h; assay type: cell-based; conditions: MCF7, 72 h, mean ± SD
Procedure: as §2, §1

[8] = tested on: A2780 (human ovarian carcinoma cells); assay: Crystal violet (CV) viability assay, 72 h; assay type: cell-based; conditions: A2780, 72 h, mean ± SD
Procedure: as §2, §1

[9] = tested on: HCT116 (human colorectal carcinoma cells); assay: Crystal violet (CV) viability assay, 72 h; assay type: cell-based; conditions: HCT-116, HCT116, 72 h, mean ± SD
Procedure: as §2, §1

[10] = tested on: HeLa (human cervical adenocarcinoma cells); assay: Crystal violet (CV) viability assay, 72 h; assay type: cell-based
Procedure: as §2, §1

[11] = tested on: MCF7 (human breast adenocarcinoma cells); assay: Crystal violet (CV) viability assay, 72 h; assay type: cell-based; conditions: MCF7, 72 h, mean ± SD
Procedure: as §2, §1

Row | Structure (SMILES) | IC50 [1] [µM] | effect on proliferation of HeLa cells (CFSE) [2] | n (HSA), number of binding sites ([3]; 296 K) | ΔG° of HSA binding ([3]; 296 K) [kcal/mol] | KSV (Stern–Volmer quenching constant) ([3]; 296 K) [M⁻¹] | kq (quenching rate constant) ([3]; 296 K) | n (HSA), number of binding sites ([3]; 303 K) | ΔG° of HSA binding ([3]; 303 K) [kcal/mol] | KSV (Stern–Volmer quenching constant) ([3]; 303 K) [M⁻¹] | kq (quenching rate constant) ([3]; 303 K) [M⁻¹ s⁻¹] | n (HSA), number of binding sites ([3]; 310 K) | ΔG° of HSA binding ([3]; 310 K) [kcal/mol] | KSV (Stern–Volmer quenching constant) ([3]; 310 K) [M⁻¹] | kq (quenching rate constant) ([3]; 310 K) [M⁻¹ s⁻¹] | ΔH° of HSA binding [3] [kcal/mol] | ΔS° of HSA binding [3] [J mol^−1K^−1] | other results
1 | COc1cc([N+]2=C(C)c3c(c4ccc(OC(C)=O)cc4oc3=O)[O][Pd-2]23[O]c2c(c(=O)oc4cc(OC(C)=O)ccc24)C(C)=[N+]3c2ccc(O)c(OC)c2)ccc1O [CC, Bis-3-(1-((4-hydroxy-3-methoxyphenyl)amino)ethylidene)-2,4-dioxochroman-7-yl acetate palladium(II) complex] | 92.9 | does not inhibit the proliferation of HeLa cells | 1.07 | -7.921 | 295000 | 2.95e+13 M⁻¹ | 1.06 | -7.99 | 272000 | 2.72e+13 | 1.10 | -8.059 | 280000 | 2.8e+13 | -5.014 | −41.09 | –
2 | COc1cc(N/C(C)=C2/C(=O)Oc3cc(OC(C)=O)ccc3C2=O)ccc1O [CL, (E)-3-(1-((4-hydroxy-3-methoxyphenyl)amino)ethylidene)-2,4-dioxochroman-7-yl acetate] | 96.3 | does not inhibit the proliferation of HeLa cells | 0.66 | -4.515 | 95600 | 9.56e+12 M⁻¹ s⁻¹ | 0.71 | -5.533 | 76900 | 7.69e+12 | 1.09 | -6.551 | 72700 | 7.27e+12 | 38.535 | 608.51 | IC50 [4]: 21.1 ± 1.4 µM; IC50 [5]: 54.4 ± 4.3 µM; IC50 [6]: 11.1 ± 0.4 µM; IC50 [7]: 45.6 ± 3.5 µM; IC50 [8]: 24.1 ± 1.4 µM; IC50 [9]: 60.2 ± 3.8 µM; IC50 ([10]; CV assay, mean ± SD of three experiments, read-out: IC50 HeLa CV): 17.7 ± 1.2 µM; IC50 ([10]; rounded IC50 used as treatment dose, assay not stated (matches CV), read-out: IC50 values on HeLa cells as used for flow cytometry treatment): 17 µM; IC50 [11]: 44 ± 1.7 µM
